Experiments:
XBP1-luciferase reporter = assay: XBP-luciferase reporter high throughput screen / IRE IC50 (tunicamycin + thapsigargin induced); assay type: cell-based, human; settings: Assay IRE IC50; Conc 20 uM
Procedure: Specifically, HT1080 fibrosarcoma cells stably transfected with the unspliced XBP-1-luciferase reporter construct (3000/well) were plated onto a solid white 384 well microplate with a multidrop dispenser (40 μL per well). The plates were then placed into an automated incubator. After 24 hours of growth, a mixture of tunicamycin (1 μg/ml) and thapsigargin (100 nM) inducers were added, and candidate compounds were then added to the plates. After 24 hours, luciferase reagent (10 μl) was added to each well and the plates were read in a Molecular Devices Analyst GT (0.2 second read per well).
As described above in Example 2, HT1080 fibrosarcoma cells stably expressing the XBP-luciferase reporter were plated in a 384 well microplate (4000 cells/well). After 24 hours, cells were treated with a mixture of tunicamycin (4 μg/ml) and thapsigargin (0.4 μM), followed by the addition of one compound per well (10 μM). We screened a total of 66,000 diverse molecules obtained from Specs, Chembridge and ChemRX. Twenty-four hours post-induction, BriteGlo luciferase substrate (10 μl) was added to each well and the signal intensity determined in a plate reader (0.2 s read per well). […] We retested 431 compounds from the initial screen, and selected 58 compounds for additional analysis, including calculation of IC50 values and inhibition of a CMV-luciferase reporter.
Compounds of the screening library with structural similarity to compound 9389 (see Table 1) have been identified and in some cases further assayed for inhibitory activity. Compounds listed with “IC50” values were assayed secondarily after initially being identified in the high throughput screen. Each value represents a separate calculation of reporter inhibition based upon the high throughput robotic screening platform. The actual IC50 values are calculated and represent an estimate of the potency of each compound. This assay is not considered to be accurate below a concentration of 10 nM. Compounds classified with “mild” activity inhibited the XBP1-luciferase reporter by 10-30%. Compounds classified with “moderate” activity inhibited the XBP1-luciferase reporter by 30-75%. Compounds classified with “potent” activity inhibited the XBP1-luciferase reporter by 75-100%. Compounds classified with “undetected” activity inhibited the XBP1-luciferase reporter by less than 10% under the defined conditions.

[1] = system: 5×-UPRE luciferase reporter (XBP-1s); assay: 5×-UPRE luciferase reporter assay, HT1080 cells; assay type: cell-based, human
Procedure: HT1080 cells stably expressing the XBP-luciferase construct were grown in 60 mm dishes to 60-70% confluency. Following hypoxia treatment, cells were washed twice with PBS, lysed in 400 μl 1× reporter lysis buffer (RLB) (Promega, Madison Wis.) for 30 min at 24° C. Lysates (100 μl) were mixed with an equal volume of luciferase substrate (Promega), and assayed using a luminometer. For 5×-UPRE-luciferase reporter assays, cells were co-transfected with the appropriate reporter plasmid and a control plasmid (pSV40-beta-gal) using Lipofectamine 2000 (Invitrogen, San Diego, Calif.). Twenty-four hours after transfection, fresh media was added, and cells were treated with Tm or shifted to hypoxia. After treatment, cells were lysed in 1×RLB and analyzed for luciferase activity as described above. Beta-galactosidase activity was determined using the beta-galactosidase enzyme assay system (Promega).
A. XBP-luciferase reporter construct. Firefly luciferase was inserted downstream of the IRE1α splice site in human XBP-1 to enable the conditional translation of luciferase under ER stress in an IRE1α-dependent manner. B. Selective inhibition of the XBP-luciferase reporter by irestatin 9389. HT1080 human fibrosarcoma cells stably expressing the XBP-luciferase reporter or CMV-luciferase were cultured in the presence of Tm (4 μg/ml) and Tg (0.4 μM) and irestatin 9389 at the indicated concentrations. After 24 hours, luciferase activity was analyzed in an automated plate reader. For each cell line, values are expressed as the percent inhibition of the median for Tm/Tg-treated wells, corrected for background. C. Structure of irestatin 9389. […] Values are expressed as the fold increases over uninduced levels. […] Cells were harvested, lysed, and analyzed by immunoblotting with antisera specific for HIF-1α (top), XBP-1s (middle) or actin (bottom). […] Total RNA was analyzed by Northern blotting using radiolabeled probes specific for P58^IPK or DER-1. […]
Since these assays employed a chimeric XBP-luciferase substrate, we next determined whether irestatin 9389 could inhibit the function of endogenous XBP-1s. […]

Compound: Cc1csc(NC(=O)CSc2nc3c(c(C(F)(F)F)c2C#N)CCC3)n1 [Compound 9389]
- % Inh (XBP1-luciferase reporter): 100.3%
- diminution of hypoxia-induced UPRE luciferase response ([1]; 48 hours of hypoxia (vehicle 170-fold)): more than 90%
- induction of 5×-UPRE luciferase activity over untreated cells ([1]; cells exposed to both Tm and irestatin 9389): < 4 fold

— patent US20130150399A1, “INHIBITORS OF THE UNFOLDED PROTEIN RESPONSE AND METHODS FOR THEIR USE” (The Board of Trustees of the Leland Stanford Junior …, priority 2006, published 2013)
